# Measurements as given in US20250163122A1, “COMPOSITIONS AND METHODS FOR TREATING AIRWAY MUCUS DYSFUNCTION” (BOARD OF REGENTS, THE UNIVERSITY OF TEXAS SYSTEM, priority 2022, published 2025).
# Where a SMILES comes first, the peptide text is derived from it. Bridges are numbered along the chain shown (N, C = ends). [ ]: non-standard residue; d: D form. S5 = C=CCCC[C@](C)(N)C(=O)O
# What was measured:
# neuronal SNAREs and Syt1 [1] = test: Ensemble lipid mixing assay, neuronal PM and SV vesicles; assay type: biochemical; conditions: for effect on ensemble lipid mixing: with or without Ca2+, peptide concentration-dependent
# Source text: Vesicle reconstitution. For the ensemble lipid mixing assay, the lipid composition of the SV vesicles was phosphatidylcholine (PC) (46%), phosphatidylethanolamine (PE) (20%), phosphatidylserine (PS) (12%), cholesterol (20%), and 1,1′-dioctadecyl-3,3,3′,3′-tetramethylindodicarbocyanine perchlorate (DiD) (Invitrogen) (2%); for the both neuronal and airway PM vesicles the lipid composition was Brain Total Lipid Extract supplemented 3.5 mol % PIP2, 0.1 mol % biotinylated phosphatidylethanolamine (PE) and 1,1′-dioctadecyl-3,3,3′,3′-tetramethylindocarbocyanine perchlorate (DiI) (Invitrogen). All the lipids are from Avanti Polar Lipids.
# (§1) A 3-5 fold excess of SNAP-25A or SNAP-23 (with respect to Stx1A or Stx3) and 3.5 mol % PIP2 were added to the protein-lipid mixture for neuronal or airway PM vesicles. […] For the preparation of SV, SG, VAMP2, or VAMP8 vesicles for single vesicle content mixing assay, 50 mM sulforhodamine B (Thermo Fisher Scientific) was added to the protein-lipid mixture. The vesicles subsequently formed during size exclusion chromatography using a Sepharose CL-4B column, packed under near constant pressure by gravity with a peristaltic pump (GE Healthcare) in a 5.5 ml column with a ˜5 ml bed volume that was equilibrated with buffer V (20 mM HEPES, pH 7.4, 90 mM NaCl) supplemented with 20 μM EGTA and 0.1% 2-mercaptoethanol. The eluent was subjected to dialysis into 21 of detergent-free buffer V supplemented with 20 μM EGTA, 0.1% 2-mercaptoethanol, 5 g of Bio-beads SM2 (Bio-Rad) and 0.8 g/L Chelex 100 resin (Bio-Rad). After 4 hours, the buffer was exchanged with 21 of fresh buffer V supplemented with 20 μM EGTA, 0.1% 2-mercaptoethanol and Bio-beads, and the dialysis continued for another 12 h (overnight). […] For ensemble lipid mixing assay, the reconstitution method is the same as that for the single vesicle content mixing assay, except that 50 mM sulforhodamine B was omitted for all the steps.
# Bulk lipid mixing experiments with neuronal synaptic proteins. Protein-reconstituted neuronal PM and SV vesicles were mixed at a molar ratio of 1:1, both at 0.1 mM lipid concentration. Lipid mixing is measured by monitoring the fluorescent emission (670 nm) of the DiD dyes in the SV vesicles by FRET using 530 nm laser light excitation of the DiI dyes in neuronal PM vesicles. The fluorescence intensity was monitored in two channels at 570 nm and 670 nm, respectively. Fluorescence changes were recorded with a Varian Cary Eclipse model fluorescence spectrophotometer using a quartz cell of 100 μl with a 5 mm path length. All measurements were performed at 35° C.
# neuronal SNAREs and Syt1 [2] = test: Single vesicle content mixing assay, neuronal SNAREs and Syt1; assay type: biochemical; conditions: 10 μM peptide, raw count; for Ca2+ triggered fusion events: 500 μM Ca2+
# Source text: For single vesicle content mixing assay, the lipid composition of the SV, SG, VAMP2, or VAMP8 vesicles was phosphatidylcholine (PC) (48%), phosphatidylethanolamine (PE) (20%), phosphatidylserine (PS) (12%), and cholesterol (20%); for both the neuronal and airway PM vesicles the lipid composition was Brain Total Lipid Extract supplemented 3.5 mol % PIP2, and 0.1 mol % biotinylated phosphatidylethanolamine (PE).
# The reconstitution method for neuronal PM and SV vesicles was described in detail previously (see Lai et al., 2017; Kyoung et al., 2011; and Lai et al., 2014). The same methods were used for airway PM, SG, VAMP2, and VAMP8 vesicles. Dried lipid films were dissolved in 110 mM OG buffer containing purified proteins at protein-to-lipid ratios of 1:200 for VAMP2 and Stx1A for SV and neuronal PM vesicles, respectively (or 1:200 for VAMP8 and Stx3 for SG and airway PM vesicles, respectively), and 1:800 for Syt1 for SV vesicles (or 1:1200 for Syt2 for SG vesicles).
# as §1
# Single vesicle content mixing experiments. All single vesicle fusion and single molecule experiments were performed on a prism-type total internal reflection fluorescence (TIRF) microscope using 532 nm (green) laser (CrystaLaser) excitation. Two observation channels were created by a 640 nm single-edge dichroic beamsplitter (FF640-FDi01-25x36, Shemrock): one channel was used for the fluorescence emission intensity of the content dyes and the other channel for that of the Cy5 dye that are part of the injected Ca^2+-solution. The two channels were recorded on two adjacent rectangular areas (45×90 m^2) of a charge-coupled device (CCD) camera (iXon+DV 897E, Andor Technology). The imaging data were recorded with the smCamera software developed by Taekjip Ha, Johns Hopkins University, Baltimore.
# Flow chambers were assembled by creating a “sandwich” consisting of a quartz slide and a glass coverslip that were both coated with polyethylene glycol (PEG) molecules consisting 0.1% (w/v) biotinylated-PEG except when stated otherwise, and using double-sided tape to create up to five flow-chambers.
# The single vesicle content mixing assay described in Lai et al. (2014) was used to monitor vesicle-vesicle association, Ca^2+-independent, and Ca^2+-triggered fusion. The surface of the quartz slides was passivated by coating the surface with polyethylene glycol (PEG) molecules which alleviated non-specific binding of vesicles. The same protocol and quality controls (surface coverage and non-specific binding) were used as described previously (Kyoung et al., 2011; Kyoung et al., 2012) except that PEG-SVA (Laysan Bio) instead of mPEG-SCM (Laysan Bio) was used since it has a longer half-life. […]
Compound,effect on ensemble lipid mixing (neuronal SNAREs and Syt1 [1]),Ca2+ triggered fusion events (neuronal SNAREs and Syt1 [2]),Ca2+ independent fusion events (neuronal SNAREs and Syt1 [2]),effect on Ca2+-triggered ensemble lipid mixing (neuronal SNAREs and Syt1 [1]),effect on Ca2+-independent ensemble lipid mixing (neuronal SNAREs and Syt1 [1]; 10 μM and 100 μM peptide)
"Ac-SKDA(S5)IRT(S5)VM(S5)DEQ(S5)EQL-amide (Ac-SKDA[S5]IRT[S5]VM[S5]DEQ[S5]EQL-NH2; staple 12-16, 5-9; SMILES CC[C@H](C)[C@@H]1NC(=O)[C@@](C)(NC(=O)[C@H](C)NC(=O)[C@H](CC(=O)O)NC(=O)[C@H](CCCCN)NC(=O)[C@H](CO)NC(C)=O)CCCC=CCCC[C@@](C)(C(=O)N[C@H](C(=O)N[C@@H](CCSC)C(=O)N[C@@]2(C)CCCC=CCCC[C@@](C)(C(=O)N[C@@H](CCC(=O)O)C(=O)N[C@@H](CCC(N)=O)C(=O)N[C@@H](CC(C)C)C(N)=O)NC(=O)[C@H](CCC(N)=O)NC(=O)[C@H](CCC(=O)O)NC(=O)[C@H](CC(=O)O)NC2=O)C(C)C)NC(=O)[C@H]([C@@H](C)O)NC(=O)[C@H](CCCNC(=N)N)NC1=O) [SP4]",substantially inhibited,210,261,–,–
"EESKDAGIRTLVMLDEQGEQLD [Peptide P0, non-stapled SNAP-25A fragment used as a control, reference compound]",–,591,493,little effect,little effect
"Ac-SKD(S5)GIR(S5)LVMLDE(S5)GEQ(S5)DR-amide (Ac-SKD[S5]GIR[S5]LVMLDE[S5]GEQ[S5]DR-NH2; staple 15-19, 4-8; SMILES CC[C@H](C)[C@@H]1NC(=O)CNC(=O)[C@@](C)(NC(=O)[C@H](CC(=O)O)NC(=O)[C@H](CCCCN)NC(=O)[C@H](CO)NC(C)=O)CCCC=CCCC[C@@](C)(C(=O)N[C@@H](CC(C)C)C(=O)N[C@H](C(=O)N[C@@H](CCSC)C(=O)N[C@@H](CC(C)C)C(=O)N[C@@H](CC(=O)O)C(=O)N[C@@H](CCC(=O)O)C(=O)N[C@@]2(C)CCCC=CCCC[C@@](C)(C(=O)N[C@@H](CC(=O)O)C(=O)N[C@@H](CCCNC(=N)N)C(N)=O)NC(=O)[C@H](CCC(N)=O)NC(=O)[C@H](CCC(=O)O)NC(=O)CNC2=O)C(C)C)NC(=O)[C@H](CCCNC(=N)N)NC1=O) [SP1]",substantially inhibited,210,235,–,–
"Ac-SKD(S5)GIR(S5)LV(S5)LDE(S5)GEQL-amide (Ac-SKD[S5]GIR[S5]LV[S5]LDE[S5]GEQL-NH2; staple 11-15, 4-8; SMILES CC[C@H](C)[C@@H]1NC(=O)CNC(=O)[C@@](C)(NC(=O)[C@H](CC(=O)O)NC(=O)[C@H](CCCCN)NC(=O)[C@H](CO)NC(C)=O)CCCC=CCCC[C@@](C)(C(=O)N[C@@H](CC(C)C)C(=O)N[C@H](C(=O)N[C@@]2(C)CCCC=CCCC[C@@](C)(C(=O)NCC(=O)N[C@@H](CCC(=O)O)C(=O)N[C@@H](CCC(N)=O)C(=O)N[C@@H](CC(C)C)C(N)=O)NC(=O)[C@H](CCC(=O)O)NC(=O)[C@H](CC(=O)O)NC(=O)[C@H](CC(C)C)NC2=O)C(C)C)NC(=O)[C@H](CCCNC(=N)N)NC1=O) [SP10]",substantially inhibited,495,263,–,–
"CC[C@H](C)[C@H](NC(=O)[C@]1(C)CCCC=CCCC[C@](C)(NC(=O)[C@H](CCC(=O)O)NC(=O)[C@H](CCC(=O)O)NC(C)=O)C(=O)N[C@@H](CCCCN)C(=O)N[C@@H](CC(=O)O)C(=O)N[C@@H](C)C(=O)N1)C(=O)N[C@@H](CCCNC(=N)N)C(=O)N[C@@]1(C)CCCC=CCCC[C@@](C)(C(=O)N[C@@H](CC(=O)O)C(=O)N[C@@H](CCC(=O)O)C(=O)N[C@@H](CCC(N)=O)C(=O)N[C@@H](CS)C(N)=O)NC(=O)[C@H](CCSC)NC(=O)[C@H](C(C)C)NC(=O)[C@H](CC(C)C)NC1=O [SP9, Ac-EE(S5)KDA(S5)IR(S5)LVM(S5)DEQC-amide] (Ac-EE[S5]KDA[S5]IR[S5]LVM[S5]DEQC-NH2; staple 3-7, 10-14)",substantially inhibited,272,165,–,–
